Assay results: PubChem BioAssay (NCI)
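Each compound was tested at five concentrations against cells in 96-well plates for 48 hours. At the TGI there is no net growth.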

Key:
Assay in all cases: inhibition of tumour cell growth, NCI panel, 48 h
UACC-62 melanoma = test system: UACC-62 melanoma
NCI-H226 lung = test system: NCI-H226 lung
UACC-257 melanoma = test system: UACC-257 melanoma
OVCAR-3 ovarian = test system: OVCAR-3 ovarian
SF-268 CNS = test system: SF-268 CNS
HS 578T breast = test system: HS 578T breast
OVCAR-8 ovarian = test system: OVCAR-8 ovarian
MALME-3M melanoma = test system: MALME-3M melanoma
RXF 393 renal = test system: RXF 393 renal
HT29 colon = test system: HT29 colon
MCF7 breast = test system: MCF7 breast
NCI/ADR-RES ovarian = test system: NCI/ADR-RES ovarian
SK-MEL-5 melanoma = test system: SK-MEL-5 melanoma
T-47D breast = test system: T-47D breast
HCT-116 colon = test system: HCT-116 colon
HCT-15 colon = test system: HCT-15 colon
OVCAR-4 ovarian = test system: OVCAR-4 ovarian
SNB-19 CNS = test system: SNB-19 CNS
SR leukemia = test system: SR leukemia
IGROV1 ovarian = test system: IGROV1 ovarian
KM12 colon = test system: KM12 colon
NCI-H522 lung = test system: NCI-H522 lung
A549 NSCLC = test system: A549 NSCLC
OVCAR-5 ovarian = test system: OVCAR-5 ovarian
RPMI-8226 leukemia = test system: RPMI-8226 leukemia
EKVX NSCLC = test system: EKVX NSCLC
SF-539 CNS = test system: SF-539 CNS
TK-10 renal = test system: TK-10 renal
HCC-2998 colon = test system: HCC-2998 colon
UO-31 renal = test system: UO-31 renal
MDA-N = test system: MDA-N
MOLT-4 leukemia = test system: MOLT-4 leukemia
CCRF-CEM leukemia = test system: CCRF-CEM leukemia
SW-620 colon = test system: SW-620 colon
SK-MEL-28 melanoma = test system: SK-MEL-28 melanoma
K-562 leukemia = test system: K-562 leukemia
LOX IMVI melanoma = test system: LOX IMVI melanoma
SK-OV-3 ovarian = test system: SK-OV-3 ovarian
M14 melanoma = test system: M14 melanoma
COLO 205 colon = test system: COLO 205 colon
HL-60(TB) leukemia = test system: HL-60(TB) leukemia
U251 CNS = test system: U251 CNS
MDA-MB-231 breast = test system: MDA-MB-231 breast
BT-549 breast = test system: BT-549 breast
HOP-92 NSCLC = test system: HOP-92 NSCLC
SF-295 CNS = test system: SF-295 CNS
786-0 renal = test system: 786-0 renal
A498 renal = test system: A498 renal
ACHN renal = test system: ACHN renal
SK-MEL-2 melanoma = test system: SK-MEL-2 melanoma
SNB-75 CNS = test system: SNB-75 CNS
CAKI-1 renal = test system: CAKI-1 renal
SN12C renal = test system: SN12C renal
NCI-H23 lung = test system: NCI-H23 lung
PC-3 prostate = test system: PC-3 prostate
HOP-62 NSCLC = test system: HOP-62 NSCLC
NCI-H460 lung = test system: NCI-H460 lung
DU-145 prostate = test system: DU-145 prostate
MDA-MB-435 = test system: MDA-MB-435

`CCCCCOC(=O)C(=O)Nc1n[nH]nc1C(N)=O` gave a TGI (UACC-62 melanoma) of over 100 µM, a TGI (NCI-H226 lung) of over 100 µM and a TGI (UACC-257 melanoma) of over 100 µM. The TGI (OVCAR-3 ovarian) was over 100 µM, the TGI (SF-268 CNS) was over 100 µM and the TGI (HS 578T breast) was over 100 µM. For the same compound, the TGI (OVCAR-8 ovarian) was over 100 µM, the TGI (MALME-3M melanoma) was over 100 µM and the TGI (RXF 393 renal) was over 100 µM. The TGI (HT29 colon) was over 100 µM, the TGI (MCF7 breast) was over 100 µM and the TGI (NCI/ADR-RES ovarian) was over 100 µM. It also gave a TGI (SK-MEL-5 melanoma) of over 100 µM, a TGI (T-47D breast) of over 100 µM and a TGI (HCT-116 colon) of over 100 µM. For the same compound, the TGI (HCT-15 colon) was over 100 µM, the TGI (OVCAR-4 ovarian) was over 100 µM and the TGI (SNB-19 CNS) was over 100 µM. For the same compound, the TGI (SR leukemia) was over 100 µM, the TGI (IGROV1 ovarian) was over 100 µM and the TGI (KM12 colon) was over 100 µM. The TGI (NCI-H522 lung) was over 100 µM, the TGI (A549 NSCLC) was over 100 µM and the TGI (OVCAR-5 ovarian) was over 100 µM. It also gave a TGI (RPMI-8226 leukemia) of over 100 µM, a TGI (EKVX NSCLC) of over 100 µM and a TGI (SF-539 CNS) of over 100 µM. The TGI (TK-10 renal) was over 100 µM, the TGI (HCC-2998 colon) was over 100 µM and the TGI (UO-31 renal) was over 100 µM. For the same compound, the TGI (MDA-N) was over 100 µM, the TGI (MOLT-4 leukemia) was over 100 µM and the TGI (CCRF-CEM leukemia) was over 100 µM. It also gave a TGI (SW-620 colon) of over 100 µM, a TGI (SK-MEL-28 melanoma) of over 100 µM and a TGI (K-562 leukemia) of over 100 µM. It also gave a TGI (LOX IMVI melanoma) of over 100 µM, a TGI (SK-OV-3 ovarian) of over 100 µM and a TGI (M14 melanoma) of over 100 µM. It also gave a TGI (COLO 205 colon) of over 100 µM, a TGI (HL-60(TB) leukemia) of over 100 µM and a TGI (U251 CNS) of over 100 µM. The TGI (MDA-MB-231 breast) was over 100 µM, the TGI (BT-549 breast) was over 100 µM and the TGI (HOP-92 NSCLC) was over 100 µM. The TGI (SF-295 CNS) was over 100 µM, the TGI (786-0 renal) was over 100 µM and the TGI (A498 renal) was over 100 µM. The TGI (ACHN renal) was over 100 µM, the TGI (SK-MEL-2 melanoma) was over 100 µM and the TGI (SNB-75 CNS) was over 100 µM. The TGI (CAKI-1 renal) was over 100 µM, the TGI (SN12C renal) was over 100 µM and the TGI (NCI-H23 lung) was over 100 µM. The TGI (PC-3 prostate) was over 100 µM, the TGI (HOP-62 NSCLC) was over 100 µM and the TGI (NCI-H460 lung) was over 100 µM. For the same compound, the TGI (DU-145 prostate) was over 100 µM and the TGI (MDA-MB-435) was over 100 µM.
`O=Cc1ccc(-c2nccc3c2[nH]c2ccccc23)o1` gave a TGI (UACC-62 melanoma) of over 100 µM, a TGI (NCI-H226 lung) of 9.86 µM and a TGI (UACC-257 melanoma) of over 55.9 µM. It also gave a TGI (OVCAR-3 ovarian) of over 100 µM, a TGI (SF-268 CNS) of over 100 µM and a TGI (HS 578T breast) of over 100 µM. It also gave a TGI (OVCAR-8 ovarian) of over 100 µM, a TGI (MALME-3M melanoma) of over 100 µM and a TGI (RXF 393 renal) of over 81.9 µM. It also gave a TGI (HT29 colon) of over 100 µM, a TGI (MCF7 breast) of over 100 µM and a TGI (NCI/ADR-RES ovarian) of over 100 µM. For the same compound, the TGI (SK-MEL-5 melanoma) was over 100 µM, the TGI (T-47D breast) was over 100 µM and the TGI (HCT-116 colon) was over 100 µM. The TGI (HCT-15 colon) was over 100 µM, the TGI (OVCAR-4 ovarian) was over 100 µM and the TGI (SNB-19 CNS) was over 100 µM. For the same compound, the TGI (SR leukemia) was over 100 µM, the TGI (IGROV1 ovarian) was over 100 µM and the TGI (KM12 colon) was over 100 µM. For the same compound, the TGI (NCI-H522 lung) was over 100 µM, the TGI (A549 NSCLC) was over 100 µM and the TGI (OVCAR-5 ovarian) was over 100 µM. The TGI (RPMI-8226 leukemia) was over 100 µM, the TGI (EKVX NSCLC) was over 100 µM and the TGI (SF-539 CNS) was over 100 µM. The TGI (TK-10 renal) was over 100 µM, the TGI (HCC-2998 colon) was over 100 µM and the TGI (UO-31 renal) was over 100 µM. For the same compound, the TGI (MDA-N) was over 100 µM, the TGI (MOLT-4 leukemia) was over 100 µM and the TGI (CCRF-CEM leukemia) was over 100 µM. It also gave a TGI (SW-620 colon) of over 100 µM, a TGI (SK-MEL-28 melanoma) of over 100 µM and a TGI (K-562 leukemia) of over 100 µM. It also gave a TGI (LOX IMVI melanoma) of over 56.2 µM, a TGI (SK-OV-3 ovarian) of over 100 µM and a TGI (M14 melanoma) of over 100 µM. The TGI (COLO 205 colon) was over 100 µM, the TGI (HL-60(TB) leukemia) was over 100 µM and the TGI (U251 CNS) was over 100 µM. For the same compound, the TGI (MDA-MB-231 breast) was over 100 µM, the TGI (BT-549 breast) was over 100 µM and the TGI (HOP-92 NSCLC) was 98.6 µM. It also gave a TGI (SF-295 CNS) of 51.2 µM, a TGI (786-0 renal) of over 100 µM and a TGI (A498 renal) of 1.46 µM. It also gave a TGI (ACHN renal) of over 100 µM, a TGI (SK-MEL-2 melanoma) of over 100 µM and a TGI (SNB-75 CNS) of over 100 µM. For the same compound, the TGI (CAKI-1 renal) was 41.4 µM, the TGI (SN12C renal) was over 100 µM and the TGI (NCI-H23 lung) was over 100 µM. It also gave a TGI (PC-3 prostate) of over 100 µM, a TGI (HOP-62 NSCLC) of over 100 µM and a TGI (NCI-H460 lung) of over 100 µM. The TGI (DU-145 prostate) was over 100 µM and the TGI (MDA-MB-435) was over 100 µM.
